# Measurements reported in ChEMBL document CHEMBL2074149, “Structural and functional characteristics and tissue distribution pattern of rat OCTN1, an organic cation transporter, cloned from placenta” (Biochim Biophys Acta, 2000).
# Tests used:
# Type in all cases: functional, cell-based
# [1] = target: T1, Solute carrier family 22 member 4 (Rattus norvegicus, UniProt Q9R141); test: TP_TRANSPORTER: inhibition of TEA uptake in Octn1-HRPE cells
# T1 sequence (Q9R141 whole entry): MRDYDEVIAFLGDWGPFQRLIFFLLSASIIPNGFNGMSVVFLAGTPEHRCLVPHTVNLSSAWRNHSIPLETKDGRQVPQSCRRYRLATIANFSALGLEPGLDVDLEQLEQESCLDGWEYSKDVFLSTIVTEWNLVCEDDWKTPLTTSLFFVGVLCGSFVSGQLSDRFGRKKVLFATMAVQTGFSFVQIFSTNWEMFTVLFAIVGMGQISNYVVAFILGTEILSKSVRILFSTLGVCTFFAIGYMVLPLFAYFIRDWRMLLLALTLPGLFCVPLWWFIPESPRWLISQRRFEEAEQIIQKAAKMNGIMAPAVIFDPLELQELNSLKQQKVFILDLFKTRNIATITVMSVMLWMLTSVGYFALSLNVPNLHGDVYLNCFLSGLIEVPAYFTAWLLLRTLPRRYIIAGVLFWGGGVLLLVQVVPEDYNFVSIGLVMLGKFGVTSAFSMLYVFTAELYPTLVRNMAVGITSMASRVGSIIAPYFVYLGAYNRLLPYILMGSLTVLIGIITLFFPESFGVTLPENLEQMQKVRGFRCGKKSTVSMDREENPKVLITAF
# [2] = target: T2, OCTN1 (Solute carrier family 22 member 4, SLC22A4) (Rattus norvegicus, UniProt Q9R141); test: TP_TRANSPORTER: inhibition of TEA uptake by Imipramine at 1mM in Octn1-HRPE cells; design: scale not given: the % may be the effect or the level left; conditions: human, HRPE cells that express Octn1, probe TEA (tetraethylammonium); read-out: Activity
# T2 sequence (Q9R141 whole entry): T1 sequence (Q9R141 whole entry)
# [3] = target: T2, OCTN1 (Solute carrier family 22 member 4, SLC22A4); test: TP_TRANSPORTER: inhibition of TEA uptake by Verapamil at 5mM in Octn1-HRPE cells; design: scale not given: the % may be the effect or the level left; conditions: human, HRPE cells that express Octn1, probe TEA (tetraethylammonium); read-out: Activity
# [4] = target: T1, Solute carrier family 22 member 4; test: TP_TRANSPORTER: inhibition of TEA uptake by Amiloride at 1mM in Octn1-HRPE cells; design: scale not given: the % may be the effect or the level left; conditions: human, 1000 µM
# [5] = target: T2, OCTN1 (Solute carrier family 22 member 4, SLC22A4); test: TP_TRANSPORTER: inhibition of TEA uptake by 1-methyl-4-phenylpyridinium at 5mM in Octn1-HRPE cells; design: scale not given: the % may be the effect or the level left; conditions: human, HRPE cells that express Octn1, probe TEA (tetraethylammonium); read-out: Activity
IC50 [1],SMILES,also measured
1000 µM,CCN(CC)CCNC(=O)c1ccc(N)cc1 [PROCAINAMIDE],–
1000 µM,CC[N+](CC)(CC)CC [TETRYLAMMONIUM],–
–,CN(C)CCCN1c2ccccc2CCc2ccccc21 [IMIPRAMINE],activity at 1000 µM [2]: 31%
–,COc1ccc(CCN(C)CCCC(C#N)(c2ccc(OC)c(OC)c2)C(C)C)cc1OC (centres undefined) [VERAPAMIL],activity at 5000 µM [3]: 20%
80 µM,CNCCCN1c2ccccc2CCc2ccccc21 [DESIPRAMINE],–
–,N=C(N)NC(=O)c1nc(Cl)c(N)nc1N [AMILORIDE],Activity [4]: 79%
200 µM,CN(C)c1nc(N)c(C(=O)NC(=N)N)nc1Cl,–
–,C[n+]1ccc(-c2ccccc2)cc1,activity at 5000 µM [5]: 62%

SMILES,IC50 [1],also measured
CN/C(=N/CCSCc1nc[nH]c1C)NC#N [CIMETIDINE],1500 µM,–
